# Results reported in ChEMBL document CHEMBL2177100, “Structural optimization and structure-activity relationships of N2-(4-(4-Methylpiperazin-1-yl)phenyl)-N8-phenyl-9H-purine-2,8-diamine derivatives, a new class of reversible kinase inhibitors targeting both EGFR-activating and resistance mutations” (J Med Chem, 2012).
# Activity calls are given as the source filed them. The rule behind the calls is not given here.
# What was measured:
# [1] = Inhibition of human recombinant CK1 by radiometric kinase assay
# [2] = biological target: Mitogen-activated protein kinase 1 (Homo sapiens, UniProt P28482); assay: Inhibition of human recombinant ERK2 by radiometric kinase assay
# [3] = Half life in Sprague-Dawley rat at 20 mg/kg, po; format: ADME, organism-based; set-up: dose 20 mg/kg, route oral; conditions: in vivo
# [4] = biological target: Non-receptor tyrosine-protein kinase TYK2 (Homo sapiens, UniProt P29597); assay: Inhibition of human recombinant TYK2 by radiometric kinase assay
# [5] = Clearance in Sprague-Dawley rat at 20 mg/kg, po; format: ADME, organism-based; set-up: dose 20 mg/kg, route oral; conditions: in vivo
# [6] = Binding affinity to […] EGFR 747-E749del, A750P mutant by KINOMEscan kinase binding assay
# FaDu = assay: Cytotoxicity against human FADU cells incubated for 72 hrs by MTT assay; format: functional, cell-based
# [7] = Inhibition of human recombinant S6K by radiometric kinase assay
# Mus musculus = assay: Inhibition of EGFR phosphorylation in human HCC827 cells xenografted in BALB/c mouse at 1 mg/kg/day, po for 3 days by immunohistochemistry; format: functional, organism-based
# [8] = biological target: Tyrosine-protein kinase JAK2 (Homo sapiens, UniProt O60674); assay: Inhibition of human recombinant JAK2 by radiometric kinase assay
# [9] = biological target: Protein kinase C alpha type (Homo sapiens, UniProt P17252); assay: Inhibition of human recombinant PKCalpha by radiometric kinase assay
# Calu-3 = assay: Cytotoxicity against human Calu3 cells incubated for 72 hrs by MTT assay; format: functional, cell-based; conditions: Calu-3, 72 h
# [10] = biological target: Serine/threonine-protein kinase N2 (Homo sapiens, UniProt Q16513); assay: Inhibition of human recombinant PKN2 by radiometric kinase assay
# [11] = biological target: Receptor tyrosine-protein kinase erbB-4 (Homo sapiens, UniProt Q15303); assay: Inhibition of human recombinant ERBB4 by radiometric kinase assay
# HCC827 [12] = assay: Antitumor activity against human HCC827 cells xenografted in BALB/c mouse assessed as complete tumor regression at 5 mg/kg, po qd measured within 15 days compound treatment; format: functional, organism-based; set-up: dose 5 mg/kg
# [13] = biological target: MAP kinase-activated protein kinase 2 (Homo sapiens, UniProt P49137); assay: Inhibition of human recombinant MK2 by radiometric kinase assay
# A-431 = assay: Cytotoxicity against human A431 cells incubated for 72 hrs by MTT assay; format: functional, cell-based; conditions: A-431, 72 h
# [14] = biological target: Serine/threonine-protein kinase PLK1 (Homo sapiens, UniProt P53350); assay: Inhibition of human recombinant PLK1 by radiometric kinase assay
# NCI-H1975 [15] = assay: Antitumor activity against human NCI-H1975 cells xenografted in BALB/c mouse assessed as inhibition of tumor growth at 25 mg/kg, po qd; format: functional; conditions: read-out: TGI
# [16] = biological target: MAP kinase-activated protein kinase 5 (Homo sapiens, UniProt Q8IW41); assay: Inhibition of human recombinant MK5 by radiometric kinase assay
# Insulin receptor = Insulin receptor (Homo sapiens, UniProt P06213); assay: Inhibition of human recombinant INSR by radiometric kinase assay
# [17] = biological target: Vascular endothelial growth factor receptor 2 (Homo sapiens, UniProt P35968); assay: Inhibition of human recombinant VEGFR2 by radiometric kinase assay
# [18] = biological target: Serine/threonine-protein kinase N1 (Homo sapiens, UniProt Q16512); assay: Inhibition of human recombinant PKN1 by radiometric kinase assay
# [19] = biological target: Cyclin-dependent kinase 2 (Homo sapiens, UniProt P24941); assay: Inhibition of human recombinant CDK2 by radiometric kinase assay
# [20] = Tmax in Sprague-Dawley rat at 20 mg/kg, po; format: ADME, organism-based; set-up: dose 20 mg/kg, route oral; conditions: in vivo
# [21] = biological target: Proto-oncogene tyrosine-protein kinase Src (Homo sapiens, UniProt P12931); assay: Inhibition of human recombinant SRC by radiometric kinase assay
# [22] = Inhibition of human recombinant PKA by radiometric kinase assay
# [23] = biological target: Mitogen-activated protein kinase 9 (Homo sapiens, UniProt P45984); assay: Inhibition of human recombinant JNK2 by radiometric kinase assay
# NCI-H1975 [24] = assay: Antitumor activity against human NCI-H1975 cells xenografted in BALB/c mouse assessed as inhibition of tumor growth at 50 mg/kg, po qd; format: functional; conditions: read-out: TGI
# [25] = biological target: Interleukin-1 receptor-associated kinase 4 (Homo sapiens, UniProt Q9NWZ3); assay: Inhibition of human recombinant IRAK4 by radiometric kinase assay
# NCI-H1975 [26] = assay: Antitumor activity against human NCI-H1975 cells xenografted in BALB/c mouse assessed as inhibition of tumor growth administered orally once daily; format: functional, cell-based
# [27] = biological target: Serine/threonine-protein kinase pim-2 (Homo sapiens, UniProt Q9P1W9); assay: Inhibition of human recombinant PIM2 by radiometric kinase assay
# [28] = biological target: Glycogen synthase kinase-3 beta (Homo sapiens, UniProt P49841); assay: Inhibition of human recombinant GSK3beta by radiometric kinase assay
# [29] = biological target: Mitogen-activated protein kinase 12 (Homo sapiens, UniProt P53778); assay: Inhibition of human recombinant p38gamma by radiometric kinase assay
# [30] = biological target: ALK tyrosine kinase receptor (Homo sapiens, UniProt Q9UM73); assay: Inhibition of human recombinant ALK by radiometric kinase assay
# HCC827 [31] = assay: Antitumor activity against human HCC827 cells xenografted in BALB/c mouse assessed as reduction tumor volume at 1 mg/kg, po qd; format: functional, organism-based; set-up: dose 1 mg/kg
# Rattus norvegicus = assay: Volume of distribution at steady state in Sprague-Dawley rat at 20 mg/kg, po; format: ADME, organism-based; set-up: dose 20 mg/kg, route oral; conditions: in vivo
# [32] = Binding affinity to […] EGFR L747-S752del, Sins mutant by KINOMEscan kinase binding assay
# HCC827 [33] = assay: Antitumor activity against human HCC827 cells xenografted in BALB/c mouse assessed as reduction in Ki67 expression at 1 mg/kg/day, po for 3 days by immunohistochemistry; format: functional, organism-based
# HCC827 [34] = assay: Antitumor activity against human HCC827 cells xenografted in BALB/c mouse assessed as reduction tumor volume at 20 mg/kg, po qd; format: functional, organism-based; set-up: dose 20 mg/kg
# [35] = biological target: Macrophage-stimulating protein receptor (Homo sapiens, UniProt Q04912); assay: Inhibition of human recombinant MST1R by radiometric kinase assay
# [36] = biological target: Insulin-like growth factor 1 receptor (Homo sapiens, UniProt P08069); assay: Inhibition of human recombinant IGF1R by radiometric kinase assay
# HCC827 [37] = assay: Antitumor activity against human HCC827 cells xenografted in BALB/c mouse assessed as reduction tumor volume at 5 mg/kg, po qd; format: functional, organism-based; set-up: dose 5 mg/kg
# [38] = biological target: Hepatocyte growth factor receptor (Homo sapiens, UniProt P08581); assay: Inhibition of human recombinant MET by radiometric kinase assay
# [39] = Cmax in Sprague-Dawley rat at 20 mg/kg, po; format: ADME, organism-based; set-up: dose 20 mg/kg, route oral; conditions: in vivo
# [40] = biological target: Mast/stem cell growth factor receptor Kit (Homo sapiens, UniProt P10721); assay: Inhibition of human recombinant KIT by radiometric kinase assay
# [41] = biological target: Tyrosine-protein kinase JAK1 (Homo sapiens, UniProt P23458); assay: Inhibition of human recombinant JAK1 by radiometric kinase assay
# HCT-116 = assay: Cytotoxicity against human HCT116 cells incubated for 72 hrs by MTT assay; format: functional, cell-based; conditions: HCT-116, 72 h
# Sequence of Macrophage-stimulating protein receptor (Q04912 25-304 limits assumed): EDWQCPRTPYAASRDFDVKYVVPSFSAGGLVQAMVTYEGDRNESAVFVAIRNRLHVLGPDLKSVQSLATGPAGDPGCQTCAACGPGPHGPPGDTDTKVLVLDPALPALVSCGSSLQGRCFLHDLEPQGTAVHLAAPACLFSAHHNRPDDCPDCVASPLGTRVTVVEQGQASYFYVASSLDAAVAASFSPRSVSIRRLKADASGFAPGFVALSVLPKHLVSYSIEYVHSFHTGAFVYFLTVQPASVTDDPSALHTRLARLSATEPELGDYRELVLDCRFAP
# Sequence of Macrophage-stimulating protein receptor (Q04912 310-1400 limits assumed): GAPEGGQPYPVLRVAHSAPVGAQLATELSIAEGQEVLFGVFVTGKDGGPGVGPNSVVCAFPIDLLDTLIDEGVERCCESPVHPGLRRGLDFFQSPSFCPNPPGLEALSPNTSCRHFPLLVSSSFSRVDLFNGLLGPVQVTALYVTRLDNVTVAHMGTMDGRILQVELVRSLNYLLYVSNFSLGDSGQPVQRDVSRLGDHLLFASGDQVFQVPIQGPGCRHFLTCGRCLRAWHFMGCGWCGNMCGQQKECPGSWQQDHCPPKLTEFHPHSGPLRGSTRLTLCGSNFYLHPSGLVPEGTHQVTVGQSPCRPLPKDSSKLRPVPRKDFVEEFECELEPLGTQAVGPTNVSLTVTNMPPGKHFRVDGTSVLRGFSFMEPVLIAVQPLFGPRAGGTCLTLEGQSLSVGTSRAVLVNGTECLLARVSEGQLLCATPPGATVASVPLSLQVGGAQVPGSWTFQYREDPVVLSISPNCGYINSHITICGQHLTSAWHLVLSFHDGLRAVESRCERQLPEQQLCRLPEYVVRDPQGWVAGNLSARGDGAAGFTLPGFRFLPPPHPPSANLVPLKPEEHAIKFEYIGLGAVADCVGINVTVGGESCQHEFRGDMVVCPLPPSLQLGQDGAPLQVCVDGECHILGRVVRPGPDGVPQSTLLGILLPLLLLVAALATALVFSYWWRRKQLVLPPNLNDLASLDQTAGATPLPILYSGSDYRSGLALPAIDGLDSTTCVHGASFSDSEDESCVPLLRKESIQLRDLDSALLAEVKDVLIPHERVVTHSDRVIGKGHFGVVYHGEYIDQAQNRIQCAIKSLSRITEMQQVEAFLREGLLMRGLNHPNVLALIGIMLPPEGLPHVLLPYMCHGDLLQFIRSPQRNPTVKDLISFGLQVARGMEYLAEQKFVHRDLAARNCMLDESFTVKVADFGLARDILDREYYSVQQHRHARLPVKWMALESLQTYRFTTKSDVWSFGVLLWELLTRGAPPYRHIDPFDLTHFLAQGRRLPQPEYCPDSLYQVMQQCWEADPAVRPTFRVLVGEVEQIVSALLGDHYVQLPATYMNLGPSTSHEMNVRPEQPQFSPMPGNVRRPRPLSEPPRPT
# Sequence of Receptor tyrosine-protein kinase erbB-4 (Q15303 whole entry): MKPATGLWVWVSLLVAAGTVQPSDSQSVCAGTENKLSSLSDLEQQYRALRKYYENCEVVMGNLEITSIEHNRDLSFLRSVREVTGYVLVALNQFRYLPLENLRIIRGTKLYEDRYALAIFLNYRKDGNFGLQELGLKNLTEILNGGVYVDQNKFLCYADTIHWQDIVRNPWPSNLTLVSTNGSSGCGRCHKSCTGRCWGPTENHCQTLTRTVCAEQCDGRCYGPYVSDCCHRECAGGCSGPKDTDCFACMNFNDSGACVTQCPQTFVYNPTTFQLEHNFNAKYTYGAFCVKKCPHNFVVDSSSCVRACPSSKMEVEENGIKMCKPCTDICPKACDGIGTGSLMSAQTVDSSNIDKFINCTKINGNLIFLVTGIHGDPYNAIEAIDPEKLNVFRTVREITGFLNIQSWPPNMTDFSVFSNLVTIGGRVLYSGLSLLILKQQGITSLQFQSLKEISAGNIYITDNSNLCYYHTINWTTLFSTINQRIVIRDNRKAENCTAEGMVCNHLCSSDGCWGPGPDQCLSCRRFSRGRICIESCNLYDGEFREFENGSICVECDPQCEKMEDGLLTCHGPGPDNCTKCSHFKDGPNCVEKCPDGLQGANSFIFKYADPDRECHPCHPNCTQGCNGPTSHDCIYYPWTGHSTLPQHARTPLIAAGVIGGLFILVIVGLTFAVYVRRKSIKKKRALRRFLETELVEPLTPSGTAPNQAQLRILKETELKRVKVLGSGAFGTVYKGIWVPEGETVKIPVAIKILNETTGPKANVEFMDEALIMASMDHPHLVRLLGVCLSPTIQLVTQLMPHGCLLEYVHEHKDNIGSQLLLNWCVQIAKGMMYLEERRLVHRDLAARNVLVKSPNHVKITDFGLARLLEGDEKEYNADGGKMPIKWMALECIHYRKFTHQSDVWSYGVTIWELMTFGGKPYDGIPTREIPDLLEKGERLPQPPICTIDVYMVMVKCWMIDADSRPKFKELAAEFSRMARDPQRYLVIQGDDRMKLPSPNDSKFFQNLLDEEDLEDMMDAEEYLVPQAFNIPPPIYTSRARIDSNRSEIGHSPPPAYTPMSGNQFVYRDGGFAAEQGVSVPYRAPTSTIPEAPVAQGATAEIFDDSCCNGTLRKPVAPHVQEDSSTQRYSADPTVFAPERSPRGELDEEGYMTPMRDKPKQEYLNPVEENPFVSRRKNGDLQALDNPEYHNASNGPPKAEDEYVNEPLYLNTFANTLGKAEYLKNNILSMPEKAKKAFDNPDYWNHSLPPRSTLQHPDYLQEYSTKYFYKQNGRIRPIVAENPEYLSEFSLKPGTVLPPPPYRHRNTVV
# Sequence of Hepatocyte growth factor receptor (P08581 whole entry): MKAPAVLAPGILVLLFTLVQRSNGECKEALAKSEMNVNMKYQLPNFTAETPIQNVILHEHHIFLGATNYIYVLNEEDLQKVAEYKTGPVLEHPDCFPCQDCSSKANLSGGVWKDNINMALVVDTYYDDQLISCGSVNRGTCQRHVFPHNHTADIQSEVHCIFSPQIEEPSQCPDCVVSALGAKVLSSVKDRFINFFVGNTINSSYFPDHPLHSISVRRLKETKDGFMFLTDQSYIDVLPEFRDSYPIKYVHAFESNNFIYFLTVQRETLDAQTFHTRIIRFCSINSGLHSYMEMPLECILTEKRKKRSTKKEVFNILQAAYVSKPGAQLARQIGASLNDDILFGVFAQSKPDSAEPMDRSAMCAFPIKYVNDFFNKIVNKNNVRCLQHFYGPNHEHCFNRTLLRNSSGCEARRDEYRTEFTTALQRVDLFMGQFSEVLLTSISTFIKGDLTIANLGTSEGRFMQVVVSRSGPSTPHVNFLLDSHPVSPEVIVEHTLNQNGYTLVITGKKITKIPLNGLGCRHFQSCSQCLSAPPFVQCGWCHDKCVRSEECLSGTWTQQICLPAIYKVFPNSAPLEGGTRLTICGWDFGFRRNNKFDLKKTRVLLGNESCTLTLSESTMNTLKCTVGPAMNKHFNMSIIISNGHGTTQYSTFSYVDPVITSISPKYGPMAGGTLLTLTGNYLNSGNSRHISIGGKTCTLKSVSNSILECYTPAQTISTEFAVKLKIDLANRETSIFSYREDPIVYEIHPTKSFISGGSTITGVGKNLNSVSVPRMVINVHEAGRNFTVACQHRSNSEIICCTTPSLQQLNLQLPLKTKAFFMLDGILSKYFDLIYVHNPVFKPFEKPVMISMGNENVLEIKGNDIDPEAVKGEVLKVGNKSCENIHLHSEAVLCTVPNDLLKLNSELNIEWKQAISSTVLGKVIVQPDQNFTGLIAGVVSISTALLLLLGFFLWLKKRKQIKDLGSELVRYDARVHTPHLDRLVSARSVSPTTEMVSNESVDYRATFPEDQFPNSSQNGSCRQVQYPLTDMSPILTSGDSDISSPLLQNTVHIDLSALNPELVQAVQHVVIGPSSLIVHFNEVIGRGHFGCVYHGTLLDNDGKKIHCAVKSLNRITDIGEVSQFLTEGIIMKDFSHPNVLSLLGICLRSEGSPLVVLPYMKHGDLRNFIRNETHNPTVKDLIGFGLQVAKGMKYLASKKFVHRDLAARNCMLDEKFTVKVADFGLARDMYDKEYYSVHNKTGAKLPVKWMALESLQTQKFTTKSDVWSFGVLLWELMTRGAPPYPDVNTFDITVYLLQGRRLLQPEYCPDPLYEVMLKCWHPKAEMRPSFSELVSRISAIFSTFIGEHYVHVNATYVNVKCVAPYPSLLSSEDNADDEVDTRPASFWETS
# Sequence of Mitogen-activated protein kinase 1 (P28482 whole entry): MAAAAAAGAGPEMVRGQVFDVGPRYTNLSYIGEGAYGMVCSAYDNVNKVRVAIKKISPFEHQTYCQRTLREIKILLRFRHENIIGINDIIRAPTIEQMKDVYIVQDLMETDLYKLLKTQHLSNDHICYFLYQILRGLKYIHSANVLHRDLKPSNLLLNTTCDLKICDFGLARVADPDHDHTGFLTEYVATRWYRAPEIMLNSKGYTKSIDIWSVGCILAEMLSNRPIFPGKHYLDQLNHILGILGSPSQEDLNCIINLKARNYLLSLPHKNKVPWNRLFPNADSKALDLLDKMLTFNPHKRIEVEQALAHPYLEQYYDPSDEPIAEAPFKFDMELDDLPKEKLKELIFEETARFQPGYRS
# Sequence of Serine/threonine-protein kinase PLK1 (P53350 whole entry): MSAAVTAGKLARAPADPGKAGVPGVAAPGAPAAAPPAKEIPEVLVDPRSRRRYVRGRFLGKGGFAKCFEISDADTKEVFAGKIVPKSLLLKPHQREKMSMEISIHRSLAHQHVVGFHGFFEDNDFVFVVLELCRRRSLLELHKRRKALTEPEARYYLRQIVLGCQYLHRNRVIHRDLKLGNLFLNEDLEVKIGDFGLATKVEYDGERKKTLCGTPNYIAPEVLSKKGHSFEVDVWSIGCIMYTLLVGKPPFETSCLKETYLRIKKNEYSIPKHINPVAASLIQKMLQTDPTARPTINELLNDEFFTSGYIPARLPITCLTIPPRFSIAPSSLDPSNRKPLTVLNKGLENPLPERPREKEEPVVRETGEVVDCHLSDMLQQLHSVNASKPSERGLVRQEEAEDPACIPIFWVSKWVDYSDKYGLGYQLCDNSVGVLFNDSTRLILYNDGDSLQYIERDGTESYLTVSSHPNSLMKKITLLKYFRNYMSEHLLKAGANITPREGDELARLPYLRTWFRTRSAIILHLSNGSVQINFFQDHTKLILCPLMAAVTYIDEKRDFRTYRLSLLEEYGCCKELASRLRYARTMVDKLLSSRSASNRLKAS
smiles,measurement,setting,value
CN1CCN(c2ccc(Nc3ncc4nc(Nc5ccccc5)n(C5CCCC5)c4n3)cc2)CC1,IC50,[1],> 10 µM
same,IC50,[2],> 10 µM
same,half-life,[3],4.86 h
same,IC50,[4],6.7 µM
same,CL/F,[5],162 mL/min/kg
same,Kd,[6],0.0004 µM
same,IC50,FaDu,0.015 µM
same,IC50,[7],9.4 µM
same,inhibition,Mus musculus,Active
same,IC50,[8],1.2 µM
same,IC50,[9],6.7 µM
same,IC50,Calu-3,0.12 µM
same,IC50,[10],> 10 µM
same,IC50,[11],0.03 µM
same,Activity,HCC827 [12],Active
same,IC50,[13],> 10 µM
same,IC50,A-431,0.12 µM
same,IC50,[14],> 10 µM
same,inhibition in vivo at 25 mg/kg,NCI-H1975 [15],35%
same,IC50,[16],> 10 µM
same,IC50,Insulin receptor,> 10 µM
same,IC50,[17],0.02 µM
same,IC50,[18],6.1 µM
same,IC50,[19],> 10 µM
same,Tmax,[20],1 h
same,IC50,[21],0.29 µM
same,IC50,[22],1.1 µM
same,IC50,[23],1.5 µM
same,inhibition in vivo at 50 mg/kg,NCI-H1975 [24],62%
same,IC50,[25],> 10 µM
same,TGI,NCI-H1975 [26],Dose-dependent effect
same,IC50,[27],> 10 µM
same,IC50,[28],> 10 µM
same,IC50,[29],> 10 µM
same,IC50,[30],2.3 µM
same,TGI,HCC827 [31],Active
same,Vdss,Rattus norvegicus,63.35 L/kg
same,Kd,[32],0.0005 µM
same,Activity,HCC827 [33],Active
same,TGI,HCC827 [34],Active
same,IC50,[35],> 10 µM
same,IC50,[36],> 10 µM
same,TGI,HCC827 [37],Active
same,IC50,[38],6.4 µM
same,Cmax,[39],230 ng/mL
same,IC50,[40],0.54 µM
same,IC50,[41],3.3 µM
same,IC50,HCT-116,3 µM
